Assay results: PMC5666424, “Marine-Derived 2-Aminoimidazolone Alkaloids. Leucettamine B-Related Polyandrocarpamines Inhibit Mammalian and Protozoan DYRK & CLK Kinases” (Marine Drugs, 2017)

Tests used:
Assay in all cases: KinomeScan
Type in all cases: binding
Settings in all cases: 1 μM
[1] = biological target: T1, LATS1 (Homo sapiens, UniProt O95835)
T1 construct: purchased DiscoverX (KINOMEscan)

[2] = biological target: T2, CDK8 (Homo sapiens, UniProt P49336)
T2 construct: purchased DiscoverX (KINOMEscan)

[3] = biological target: T3, ULK2 (Homo sapiens, UniProt Q8IYT8)
T3 construct: purchased DiscoverX (KINOMEscan)

[4] = biological target: T4, JAK1(JH2domain-pseudokinase) (Homo sapiens, UniProt P23458)
T4 construct: JAK1(JH2domain-pseudokinase); purchased DiscoverX (KINOMEscan)

[5] = biological target: T5, ZAK (Homo sapiens, UniProt Q9NYL2)
T5 construct: purchased DiscoverX (KINOMEscan)

[6] = biological target: T6, ERBB4 (Homo sapiens, UniProt Q15303)
T6 construct: purchased DiscoverX (KINOMEscan)

[7] = biological target: T7, JAK2(JH1domain-catalytic) (Homo sapiens, UniProt O60674)
T7 construct: JAK2(JH1domain-catalytic); purchased DiscoverX (KINOMEscan)

[8] = biological target: T8, CSNK1D (Homo sapiens, UniProt P48730)
T8 construct: purchased DiscoverX (KINOMEscan)

[9] = biological target: T9, ERBB3 (Homo sapiens, UniProt P21860)
T9 construct: purchased DiscoverX (KINOMEscan)

[10] = biological target: T10, BTK (Homo sapiens, UniProt Q06187)
T10 construct: purchased DiscoverX (KINOMEscan)

[11] = biological target: T11, ANKK1 (Homo sapiens, UniProt Q8NFD2)
T11 construct: purchased DiscoverX (KINOMEscan)

[12] = biological target: T12, MEK1 (Homo sapiens, UniProt Q02750)
T12 construct: purchased DiscoverX (KINOMEscan)

[13] = biological target: T13, TXK (Homo sapiens, UniProt P42681)
T13 construct: purchased DiscoverX (KINOMEscan)

[14] = biological target: T14, TRKA (Homo sapiens, UniProt P04629)
T14 construct: purchased DiscoverX (KINOMEscan)

[15] = biological target: T15, NEK4 (Homo sapiens, UniProt P51957)
T15 construct: purchased DiscoverX (KINOMEscan)

[16] = biological target: T16, IRAK3 (Homo sapiens, UniProt Q9Y616)
T16 construct: purchased DiscoverX (KINOMEscan)

[17] = biological target: T17, FGFR2 (Homo sapiens, UniProt P21802)
T17 construct: purchased DiscoverX (KINOMEscan)

[18] = biological target: T18, MLCK (Homo sapiens, UniProt Q32MK0)
T18 construct: purchased DiscoverX (KINOMEscan)

[19] = biological target: T19, CLK4 (Homo sapiens, UniProt Q9HAZ1)
T19 construct: purchased DiscoverX (KINOMEscan)

[20] = biological target: T20, DAPK3 (Homo sapiens, UniProt O43293)
T20 construct: purchased DiscoverX (KINOMEscan)

[21] = biological target: T21, TAK1 (Homo sapiens, UniProt O43318)
T21 construct: purchased DiscoverX (KINOMEscan)

[22] = biological target: T22, MARK2 (Homo sapiens, UniProt Q7KZI7)
T22 construct: purchased DiscoverX (KINOMEscan)

[23] = biological target: T23, TIE1 (Homo sapiens, UniProt P35590)
T23 construct: purchased DiscoverX (KINOMEscan)

[24] = biological target: T24, TSSK1B (Homo sapiens, UniProt Q9BXA7)
T24 construct: purchased DiscoverX (KINOMEscan)

[25] = biological target: T25, PIM2 (Homo sapiens, UniProt Q9P1W9)
T25 construct: purchased DiscoveRx (KinomeScan, San Diego, CA, USA)

[26] = biological target: T26, ACVRL1 (Homo sapiens, UniProt P37023)
T26 construct: purchased DiscoverX (KINOMEscan)

[27] = biological target: T27, YANK2 (Homo sapiens, UniProt Q9NY57)
T27 construct: purchased DiscoverX (KINOMEscan)

[28] = biological target: T28, ABL1(Q252H)-nonphosphorylated (Homo sapiens, UniProt P00519, Q252H)
T28 construct: purchased DiscoverX (KINOMEscan)

[29] = biological target: T29, NEK7 (Homo sapiens, UniProt Q8TDX7)
T29 construct: purchased DiscoverX (KINOMEscan)

[30] = biological target: T30, TGFBR2 (Homo sapiens, UniProt P37173)
T30 construct: purchased DiscoverX (KINOMEscan)

T11 sequence (Q8NFD2 whole entry): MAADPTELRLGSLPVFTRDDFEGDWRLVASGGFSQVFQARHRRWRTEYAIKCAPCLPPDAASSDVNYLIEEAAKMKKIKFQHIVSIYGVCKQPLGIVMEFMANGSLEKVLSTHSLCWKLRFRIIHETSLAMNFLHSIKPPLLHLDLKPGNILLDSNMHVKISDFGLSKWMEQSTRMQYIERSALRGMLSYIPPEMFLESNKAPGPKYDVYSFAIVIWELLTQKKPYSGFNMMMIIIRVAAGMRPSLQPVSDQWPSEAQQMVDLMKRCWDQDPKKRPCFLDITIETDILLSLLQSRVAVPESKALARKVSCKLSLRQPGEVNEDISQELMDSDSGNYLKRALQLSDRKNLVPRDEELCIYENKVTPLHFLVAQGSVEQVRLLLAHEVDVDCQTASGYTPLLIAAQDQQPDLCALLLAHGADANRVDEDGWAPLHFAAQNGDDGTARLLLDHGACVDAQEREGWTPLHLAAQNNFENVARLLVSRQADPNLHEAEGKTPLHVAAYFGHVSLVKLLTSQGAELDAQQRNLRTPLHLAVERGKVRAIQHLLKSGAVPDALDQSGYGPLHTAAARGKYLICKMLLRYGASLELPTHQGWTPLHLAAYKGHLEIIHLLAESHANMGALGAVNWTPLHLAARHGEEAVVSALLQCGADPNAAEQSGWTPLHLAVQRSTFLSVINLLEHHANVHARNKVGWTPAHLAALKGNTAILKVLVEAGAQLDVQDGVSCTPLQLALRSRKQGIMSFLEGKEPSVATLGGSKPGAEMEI
T17 sequence (P21802 22-821): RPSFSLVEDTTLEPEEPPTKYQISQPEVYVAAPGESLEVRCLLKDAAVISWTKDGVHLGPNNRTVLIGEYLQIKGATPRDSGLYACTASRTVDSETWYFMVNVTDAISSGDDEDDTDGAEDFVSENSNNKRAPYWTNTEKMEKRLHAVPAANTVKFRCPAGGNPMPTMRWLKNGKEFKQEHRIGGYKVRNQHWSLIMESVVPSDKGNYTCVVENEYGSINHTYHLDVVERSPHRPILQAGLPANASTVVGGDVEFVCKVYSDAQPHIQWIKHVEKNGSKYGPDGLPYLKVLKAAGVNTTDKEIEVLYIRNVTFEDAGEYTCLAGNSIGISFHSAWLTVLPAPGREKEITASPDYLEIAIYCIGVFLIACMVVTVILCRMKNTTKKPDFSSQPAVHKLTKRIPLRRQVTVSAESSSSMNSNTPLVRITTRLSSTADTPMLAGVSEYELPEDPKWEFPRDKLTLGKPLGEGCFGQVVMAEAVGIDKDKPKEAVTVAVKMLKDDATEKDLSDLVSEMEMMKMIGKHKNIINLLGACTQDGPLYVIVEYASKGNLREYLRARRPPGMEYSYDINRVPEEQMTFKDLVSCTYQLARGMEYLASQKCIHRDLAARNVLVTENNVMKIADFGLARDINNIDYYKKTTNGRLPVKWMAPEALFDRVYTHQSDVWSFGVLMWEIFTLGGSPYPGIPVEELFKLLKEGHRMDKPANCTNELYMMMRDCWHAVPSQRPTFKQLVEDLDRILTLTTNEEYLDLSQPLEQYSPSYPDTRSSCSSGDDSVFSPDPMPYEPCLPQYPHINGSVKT
T1 sequence (O95835 whole entry): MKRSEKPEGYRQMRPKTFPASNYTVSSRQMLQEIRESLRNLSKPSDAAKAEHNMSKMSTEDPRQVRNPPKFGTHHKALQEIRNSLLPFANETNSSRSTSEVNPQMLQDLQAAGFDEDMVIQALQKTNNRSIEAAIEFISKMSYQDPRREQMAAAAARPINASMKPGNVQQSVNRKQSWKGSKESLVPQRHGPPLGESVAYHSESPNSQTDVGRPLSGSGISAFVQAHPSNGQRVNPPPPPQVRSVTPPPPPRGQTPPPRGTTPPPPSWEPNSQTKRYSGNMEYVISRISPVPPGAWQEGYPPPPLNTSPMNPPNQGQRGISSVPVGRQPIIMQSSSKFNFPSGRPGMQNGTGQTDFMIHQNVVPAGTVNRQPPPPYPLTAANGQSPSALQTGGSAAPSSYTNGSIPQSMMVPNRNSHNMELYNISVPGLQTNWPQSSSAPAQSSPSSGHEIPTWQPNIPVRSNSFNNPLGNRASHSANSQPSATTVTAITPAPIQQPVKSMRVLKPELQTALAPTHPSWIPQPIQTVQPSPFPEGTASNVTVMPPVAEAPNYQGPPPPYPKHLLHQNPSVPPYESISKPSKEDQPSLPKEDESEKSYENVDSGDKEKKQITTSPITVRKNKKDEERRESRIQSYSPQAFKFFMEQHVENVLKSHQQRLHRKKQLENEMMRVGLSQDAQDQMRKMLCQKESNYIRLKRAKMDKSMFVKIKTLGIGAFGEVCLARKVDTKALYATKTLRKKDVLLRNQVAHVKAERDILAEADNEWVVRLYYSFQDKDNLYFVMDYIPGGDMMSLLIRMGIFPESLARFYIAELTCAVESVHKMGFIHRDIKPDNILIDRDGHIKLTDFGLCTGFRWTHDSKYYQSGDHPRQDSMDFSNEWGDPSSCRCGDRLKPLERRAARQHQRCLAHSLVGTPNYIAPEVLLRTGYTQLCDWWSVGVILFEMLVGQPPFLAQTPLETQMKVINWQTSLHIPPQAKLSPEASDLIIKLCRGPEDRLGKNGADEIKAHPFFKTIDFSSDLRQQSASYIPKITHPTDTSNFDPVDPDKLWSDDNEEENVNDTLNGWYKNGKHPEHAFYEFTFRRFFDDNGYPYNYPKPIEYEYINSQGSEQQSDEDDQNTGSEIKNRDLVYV
T5 sequence (Q9NYL2 whole entry): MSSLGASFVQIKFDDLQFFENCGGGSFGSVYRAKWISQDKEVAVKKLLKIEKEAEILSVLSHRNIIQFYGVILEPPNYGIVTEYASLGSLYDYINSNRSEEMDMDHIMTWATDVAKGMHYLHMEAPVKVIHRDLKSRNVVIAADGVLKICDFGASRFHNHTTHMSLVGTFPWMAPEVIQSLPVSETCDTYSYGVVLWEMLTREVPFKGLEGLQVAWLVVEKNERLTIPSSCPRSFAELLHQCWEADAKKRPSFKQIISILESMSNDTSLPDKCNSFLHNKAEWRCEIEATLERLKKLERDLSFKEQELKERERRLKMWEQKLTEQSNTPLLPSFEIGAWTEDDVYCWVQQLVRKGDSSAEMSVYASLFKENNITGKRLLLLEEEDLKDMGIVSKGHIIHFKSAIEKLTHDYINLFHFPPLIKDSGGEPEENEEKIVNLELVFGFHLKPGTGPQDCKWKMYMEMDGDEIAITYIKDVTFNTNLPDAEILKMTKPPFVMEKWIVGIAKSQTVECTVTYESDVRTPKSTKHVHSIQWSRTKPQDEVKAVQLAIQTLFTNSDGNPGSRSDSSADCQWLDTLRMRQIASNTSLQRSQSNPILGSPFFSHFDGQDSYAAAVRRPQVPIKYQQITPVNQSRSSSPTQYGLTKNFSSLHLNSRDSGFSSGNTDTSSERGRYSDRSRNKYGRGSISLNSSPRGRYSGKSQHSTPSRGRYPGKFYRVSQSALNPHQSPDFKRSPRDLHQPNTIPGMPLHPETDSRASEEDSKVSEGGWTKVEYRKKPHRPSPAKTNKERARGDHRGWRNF
T23 sequence (P35590 22-1138): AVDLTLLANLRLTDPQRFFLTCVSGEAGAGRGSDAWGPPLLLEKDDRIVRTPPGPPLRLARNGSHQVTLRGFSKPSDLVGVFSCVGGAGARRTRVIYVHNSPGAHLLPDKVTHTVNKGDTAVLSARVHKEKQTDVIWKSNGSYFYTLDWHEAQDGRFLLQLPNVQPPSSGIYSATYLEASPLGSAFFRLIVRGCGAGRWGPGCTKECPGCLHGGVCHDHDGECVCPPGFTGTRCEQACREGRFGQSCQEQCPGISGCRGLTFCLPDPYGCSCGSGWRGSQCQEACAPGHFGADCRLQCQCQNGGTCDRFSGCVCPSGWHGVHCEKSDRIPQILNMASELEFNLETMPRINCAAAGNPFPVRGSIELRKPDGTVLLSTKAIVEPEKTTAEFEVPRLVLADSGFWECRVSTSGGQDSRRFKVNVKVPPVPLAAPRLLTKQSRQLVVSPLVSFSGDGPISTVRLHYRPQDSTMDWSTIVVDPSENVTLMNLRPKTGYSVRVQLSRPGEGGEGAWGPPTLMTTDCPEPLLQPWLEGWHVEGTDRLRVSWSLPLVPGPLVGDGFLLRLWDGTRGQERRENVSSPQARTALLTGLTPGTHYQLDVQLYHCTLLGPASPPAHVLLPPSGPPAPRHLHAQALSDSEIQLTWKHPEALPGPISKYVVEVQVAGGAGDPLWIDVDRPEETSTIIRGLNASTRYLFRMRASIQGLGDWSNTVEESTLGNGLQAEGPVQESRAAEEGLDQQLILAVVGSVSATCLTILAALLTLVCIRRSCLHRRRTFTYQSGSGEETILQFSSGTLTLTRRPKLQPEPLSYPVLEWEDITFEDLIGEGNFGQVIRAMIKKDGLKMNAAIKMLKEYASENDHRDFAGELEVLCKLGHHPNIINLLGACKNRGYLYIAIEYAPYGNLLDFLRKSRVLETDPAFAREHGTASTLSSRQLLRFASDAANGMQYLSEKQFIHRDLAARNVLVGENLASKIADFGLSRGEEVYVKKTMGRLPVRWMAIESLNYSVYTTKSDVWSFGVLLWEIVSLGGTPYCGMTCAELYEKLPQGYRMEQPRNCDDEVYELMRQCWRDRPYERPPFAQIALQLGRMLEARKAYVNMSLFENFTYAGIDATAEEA
T25 sequence (Q9P1W9 whole entry): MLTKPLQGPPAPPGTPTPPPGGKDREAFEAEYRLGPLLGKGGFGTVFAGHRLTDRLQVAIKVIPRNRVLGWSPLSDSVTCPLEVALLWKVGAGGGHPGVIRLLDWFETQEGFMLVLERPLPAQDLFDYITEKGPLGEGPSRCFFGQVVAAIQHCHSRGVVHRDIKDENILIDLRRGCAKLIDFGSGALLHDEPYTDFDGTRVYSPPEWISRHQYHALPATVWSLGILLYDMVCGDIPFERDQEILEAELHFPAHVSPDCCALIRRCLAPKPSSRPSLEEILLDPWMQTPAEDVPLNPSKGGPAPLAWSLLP

COc1cc(/C=C2\N=C(N)NC2=O)ccc1O [Polyandrocarpamine A]
Score [1]: 100
Score [2]: 100
Score [3]: 100
Score [4]: 92
Score [5]: 95
Score [6]: 99
Score [7]: 97
Score [8]: 70
Score [9]: 100
Score [10]: 100
Score [11]: 100
Score [12]: 100
Score [13]: 100
Score [14]: 95
Score [15]: 100
Score [16]: 98
Score [17]: 100
Score [18]: 100
Score [19]: 30
Score [20]: 50
Score [21]: 100
Score [22]: 100
Score [23]: 81
Score [24]: 100
Score [25]: 21
Score [26]: 100
Score [27]: 94
Score [28]: 100
Score [29]: 100
Score [30]: 100
